# Where “and” joins values, the source holds several entries; their conditions need not be identical. Equal entries are not always repeated.
# Key:
# [1] = system: E. faecium EFSK-2; test: MIC, modified broth microdilution, MHB; assay type: cell-based
# Protocol: (§1) The MIC and MBC values were calculated using a modified version of the broth microdilution assay as previously described by the Clinical and Laboratory Standards Institute (CLSI) (45). The specific modifications were to the bacterial concentration and growth medium used. […] CAA medium was used for Gram-negative bacteria to simulate low iron conditions. Alternatively, MHB was used for Gram-positive bacteria due to their inability to grow in CAA medium. Bacterial growth was assessed by measuring the OD600 nm using a SpectraMax M5 microplate reader (Molecular Devices). The MIC was defined as the lowest antimicrobial concentration that inhibits bacterial growth. To determine the MBC, the contents from each well originating from the MIC microtiter plate was plated on CAA agar to quantitate bacterial viability. The MBC was defined as the lowest antimicrobial concentration required to kill ≥99.9% of the initial bacterial inoculum. Growth and sterility controls were included.
# [2] = system: S. pyogenes D471; test: MIC, modified broth microdilution, MHB; assay type: cell-based
# Protocol: as §1
# [3] = system: S. aureus NR-45946; test: MIC, modified broth microdilution, MHB; assay type: cell-based
# Protocol: as §1
# [4] = system: B. cereus RSVF1; test: MIC, modified broth microdilution, MHB; assay type: cell-based
# Protocol: as §1
# [5] = system: pseudomonal PG (autoclaved P. aeruginosa); test: Muralytic plate lysis assay on autoclaved Pseudomonas; assay type: biochemical; settings: 25 pmol spotted
# [6] = system: E. coli ATCC 25922; test: MIC, modified broth microdilution, CAA medium; assay type: cell-based
# Protocol: as §1
# [7] = system: A. baumaneii ATCC 17978; test: MIC, modified broth microdilution, CAA medium; assay type: cell-based
# Protocol: as §1
# [8] = system: E. cloacae NR-50391; test: MIC, modified broth microdilution, CAA medium; assay type: cell-based
# Protocol: as §1
# [9] = system: K. pneumoniae NR-41916; test: MIC, modified broth microdilution, CAA medium; assay type: cell-based
# Protocol: as §1
# [10] = system: P. aeruginosa strain 453; test: Endotoxin release (chromogenic LAL assay); assay type: cell-based; settings: after 4 h treatment, 0.2× and 5×MIC
# Protocol: Endotoxin Release P. aeruginosa strain 453 at 10^6 CFU/ml was treated with 0.2× and 5×MIC PyS2-GN4, colistin, meropenem or tobramycin in CAA medium for either 1 or 4 h at 37° C. The samples were subsequently centrifuged at 2,000×g for 10 min. The supernatant was collected and passed through a 0.2 μm syringe filter. Endotoxin concentration in the filtered supernatant was quantitated using the ToxinSensor Chromogenic LAL Endotoxin Assay Kit (GenScript). All data was depicted as the mean±SEM of duplicate experiments.
# [11] = system: P. aeruginosa strain 453; test: Transmission electron microscopy of lysocin-treated bacteria; assay type: cell-based; settings: 50 μg/ml
# Protocol: At 0, 30 and 60 min, an aliquot was removed and fixed with 100 mM sodium cacodylate, pH 7.4, containing 4% (vol/vol) paraformaldehyde and 2% (vol/vol) glutaraldehyde. TEM images were obtained by The Rockefeller University Electron Microscopy Resource Center.
# [12] = system: P. aeruginosa strain 453; test: Dose-response cell viability assay (killing kinetics); assay type: cell-based; settings: for reduction in bacterial viability: 0.1-100 μg/ml, CAA medium with EDDHA
# Protocol: For the 12 h experiments, 0.01-100 μg/ml of PyS2-GN4 was incubated statically at 37° C. with P. aeruginosa strain 453 at 10^6 CFU/ml in CAA medium with 0.5 mg/ml EDDHA (Complete Green Company). At 2 h increments, an aliquot was removed from each sample, serial diluted and plated on CAA agar to determine viable bacterial counts. For the 24 h experiments, lysocin at 0.1-100 μg/ml was incubated statically at 37° C. with P. aeruginosa strain 453 at 10^6 CFU/ml in either CAA medium or CAA:HuS (1:1) with EDDHA. After 24 h, the samples were serial diluted and plated on CAA agar to assess bacterial viability. An untreated control was used for each data set. All samples were investigated in duplicate.
# [13] = system: P. aeruginosa strains; test: MIC and MBC, modified CLSI broth microdilution, CAA medium; assay type: cell-based
# Protocol: as §1
# [14] = system: P. aeruginosa strain 453; test: Lysocin thermal stability (residual antipseudomonal activity after heating); assay type: physicochemical; settings: 30 min incubation in PBS, then 50 μg/ml for 4 h at 37° C.
# Protocol: FIG. 7. Lysocin thermal stability. PyS2-GN4 was incubated in phosphate buffered saline (PBS) for 30 min at temperatures ranging from 4° C. to 80° C. After cooling on ice, each sample at 50 μg/ml was incubated statically with P. aeruginosa strain 453 for a total of 4 h at 37° C. The average residual antipseudomonal activity of each sample was equated to the log10 decrease in viable bacterial cells when compared to the untreated control. All error bars correspond to ±SEM of triplicate experiments.
# [15] = system: P. aeruginosa strain 453; test: Plate lysis assay using viable Pseudomonas; assay type: cell-based
# Protocol: For determining muralytic activity, 25 pmol of each purified protein sample was spotted on 0.75% (wt/vol) agarose embedded with autoclaved P. aeruginosa in 50 mM Tris-HCl, pH 7.5. […] For elucidating antipseudomonal activity towards viable bacteria, 0.01-400 pmol of each purified protein sample was spotted on 0.75% (wt/vol) agarose comprising P. aeruginonsa strain 453 at an initial concentration of 5×10^6 CFU/ml in either CAA medium or CAA:HuS (1:1; HuS from pooled human male AB plasma, Sigma-Aldrich). Growth inhibition zones observed after 24 h incubation at 37° C. correspond to antipseudomonal activity. Buffer was spotted as a negative control.
# [16] = system: P. aeruginosa strain 453; test: Cell viability assays with 0.5 μM antimicrobial; settings: iron-chelated CAA medium
# Protocol: P. aeruginosa strain 453 were grown under iron-depleted conditions (see Bacterial Strains and Growth Conditions). The bacteria were harvested, washed and resuspended in fresh CAA medium with 0.5 mg/ml EDDHA. Using a 96-well flat-bottomed microtiter plate, the bacteria at ˜10^6 CFU/ml were incubated statically at 37° C. with either growth medium only (untreated control) or 0.5 μM purified antimicrobial. A 2 h incubation was used for the single time point experiments, whereas a 4 or 6 h incubation was used for the multiple time point assays. At various time points, an aliquot was removed from each sample, serially diluted and plated on CAA agar. After incubating the agar plates for up to 48 h at 37° C., colonies were counted in order to quantitate the CFU/ml concentration of surviving bacterial cells. Modifications were introduced to the aforementioned cell viability assay protocol for the experiment using P. aeruginosa grown in the presence of varying free iron concentrations. First, P. aeruginosa strain 453 were grown using iron-depleted or iron-rich conditions (CAA medium supplemented with 100 μM FeSO4) at 37° C. with aeration for a total of 16-18 h and subsequently assayed for lysocin sensitivity in PBS, pH 7.4. For the experiment analyzing lysocin activity in the presence of lung surfactant or serum, P. aeruginosa were incubated with or without lysocin in beractant ([sequence]; Abbvie) or HuS diluted 1:1 with 20 mM sodium phosphate, pH 7.0.
# [17] = system: P. aeruginosa strain 453; test: Murine model of bacteremia; assay type: in vivo, mice; settings: for protected from death (survival over 10 days): 3 h post-infection
# Protocol: A murine model of bacteremia using P. aeruginosa was adapted from previous studies (46-50). Briefly, male 6-week-old C57BL/6 mice (Charles River Laboratories) were IP infected with 10^8 P. aeruginosa strain 453 and then IP treated 3 h post-infection with a single dosage of either PBS or PyS2-GN4 at 2.5-25 mg/kg. Survival was monitored for 10 days. The collective results were obtained from four independent experiments and analyzed by Kaplan-Meier survival curves using GraphPad Prism. The Rockefeller University Institutional Animal Care and Use Committee approved all mouse experiments (protocol 17025).
substance,measurement,setting,value
"PyS2-GN4: lysocin: PyS2 domains I-III, with domain IV (aa 559-689) deleted and replaced by the GN4 lysin (aa 1-144); 76 kDa",MIC,[1],>256 µg/mL
same,MIC,[2],>256 µg/mL
same,MIC,[3],>256 µg/mL
same,MIC,[4],>256 µg/mL
same,muralytic activity (clearing zones) on autoclaved P. aeruginosa,[5],degraded Pseudomonas PG
same,MIC,[6],>256 µg/mL
same,MIC,[7],>256 µg/mL
same,MIC,[8],>256 µg/mL
same,MIC,[9],>256 µg/mL
same,"endotoxin release, fold less than meropenem and tobramycin",[10],~100 fold
same,bacterial morphology by TEM,[11]; 30 min post-treatment,transitioned from rod-shaped to a more spherical morphology
same,bacterial morphology by TEM,[11]; 60 min post-treatment,"intact, nonviable cells either lacking or with noticeably reduced cytoplasmic content"
same,reduction in bacterial viability,[12]; 2 h,~2 log10
same,reduction in bacterial viability,[12]; 4 h,~3 log10
same,reduction in bacterial viability,[12]; 12 h,~4 log10
same,lysocin concentration that sterilized the bacterial culture,"[12]; 24 h, CAA medium and 50% HuS",10 μg/ml and 132 nM
same,concentration at which bactericidal,[12]; after 4 h,0.1 µg/mL
same,MIC,"[13]; strain 452, FpvA type I",4 µg/mL
same,MBC,"[13]; strain 453, FpvA type I",0.25 µg/mL
same,MIC,"[13]; strain 453, FpvA type I",0.25 µg/mL
same,MIC,"[13]; strain MDR-M-3, FpvA type I",2 µg/mL
same,MIC,"[13]; strain PAO1, FpvA type I",2 µg/mL
same,MIC values,"[13]; towards strain PAO1 and the 452, 453 and MDR-M-3 clinical isolates",≤ 4 µg/mL
same,temperature at which bactericidal activity was fully retained,[14],45 °C
same,amount spotted at which activity could be observed,[15]; 50% HuS,0.13 pmol
same,amount spotted at which antipseudomonal activity was displayed,[15]; growth medium (CAA),0.64 pmol
same,decrease in pseudomonal viability,[16]; 3 h,3.1 log10
same,viable bacterial cells relative to limit of detection (10 CFU/ml),[16]; duration of the experiment (6 h),incapable of lowering the number of viable bacterial cells to the limit of detection
same,protected from death (survival over 10 days),[17]; 2.5 mg/kg IP,73%
same,protected from death (survival over 10 days),[17]; 5 mg/kg IP,80%
same,protected from death (survival over 10 days),[17]; 12.5 mg/kg IP,93%
same,protected from death (survival over 10 days),[17]; 25 mg/kg IP,100%
same,Pseudomonas in organs of surviving mice,[17]; day 10,did not contain detectable Pseudomonas
